{
  "source": "patent US10548906B2",
  "about": "“Methods of promoting hepatic regeneration” (Intercept Pharmaceuticals, Inc., priority 2015, dated 2020)",
  "key": {"FXR [1]": {"test_system": "FXR", "assay": "Bile salt homeostasis/proliferation related transcript levels in liver after PVE (Example 5a)", "format": "in vivo, rabbit", "protocol": "Adult female rabbits received vehicle or the FXR agonist obeticholic acid (OCA; 10 mg/kg, daily oral gavage) for 7 days prior to, and after embolization (day 0) of the cranial liver lobes. Effectiveness of PVE was confirmed by portography, and caudal liver volume (CLV) was analyzed by CT-volumetric analysis at days −7, −1, +3 and +7. Rabbits were sacrificed at day +3 and +7 (n=5-6 per group)."}, "FXR [2]": {"test_system": "FXR", "assay": "FXR target gene expression in terminal ileum and liver by RT-qPCR (Example 5)", "format": "in vivo, rabbit", "protocol": "Total RNA was isolated from terminal ileum and (non)embolized liver lobes using Tri Reagent (Ambion). Following treatment with DNAseI (Promega, Leiden, the Netherlands), 750 ng total RNA was converted to cDNA using the iSCRIPT cDNA synthesis kit (BioRad, Veenendaal, the Netherlands). Quantitative RT-PCR (real-time polymerase chain reaction) was performed on an IQ5 Cycler using SYBR Green chemistry (SYBR Green MasterMix, BioRad) and cDNA equivalent to 7.5 ng total RNA as template. Expression levels were calculated using LinReg software (Ramakers C, et al. Neurosci Lett 2003; 339(1):62-6) and normalized to the geometric mean of Rplp0, Hprt and Gapdh. Predicted product size was checked by agarose gel electrophoresis. PCR analysis was performed using tissue obtained at day 3 and 7 for n=6 per treatment group."}, "Wistar rats [3]": {"test_system": "Wistar rats", "assay": "Hepatobiliary injury markers and histology in rBDL rats before and after PHx (Example 6)", "format": "in vivo, rat", "protocol": "(§1) At baseline (i.e., directly before PHx) and one to five days after PHx, animals were euthanized under isoflurane anesthesia by exsanguination. Blood samples were collected from the caval vein in heparin-anticoagulated vacutainers (BD, Franklin Lakes, N.J.) and centrifuged for 10 min (3000×g, 4° C.). In rBDL animals sacrificed at baseline, bile was aspirated with a syringe from the dilated extrahepatic bile duct, weighed, and stored at −80° C. The liver and ileum were excised, weighed, loafed, and either fixed in a 10% (vol/vol) neutralized formalin solution (J. T. Baker, Center Valley, Pa.), snap-frozen in liquid nitrogen and stored at −80° C., or collected in RNAlater (Qiagen, Venlo, the Netherlands) and stored at −20° C. Liver regrowth was calculated from the regenerated liver mass, and was expressed as percentage of total liver mass prior to PHx. The projected remnant liver mass was calculated using the weight of the resected liver segments, which represent 70% of the total liver mass. Dry liver weights were measured to correct for hepatic water content [Kloek 2010a].\n(§2) After formalin fixation, liver specimens were dehydrated, paraffin-embedded, and stained with hematoxylin and eosin (H&E), the collagen type I and III stain picrosirius red, or the proliferation marker Ki67 [Marsman 2013]. Semi-quantitative analysis of H&E- and picrosirius red-stained liver histology was performed by an experienced hepatopathologist (JV) blinded to the experimental groups using a scoring system detailed in Table 1. Ki67-positive hepatocyte nuclei were manually counted by two observers (RFG and PBO) in four randomly-selected microscopic fields at 200× magnification."}, "[4]": {"test_system": "New Zealand White rabbits", "assay": "Liver injury after PVE: clinical chemistry and H&E histology (Example 5)", "format": "in vivo, rabbit", "protocol": "(§3) Liver tissue (left lateral and caudal lobes) was fixed in buffered formalin for 48 h, and subsequently dehydrated and embedded in paraffin. Four-micron sections of liver tissue were cut and stained with standard hematoxylin and eosin stain. Sections were scored for lobular and portal inflammation according to Table 1. Additionally, liver sections were stained with Ki67 antibodies to quantify hepatocyte proliferation, and hematoxylin counterstain as described in detail previously (van der Loos C M, et al. J Histochern Cytochern 2013; 61(1):11-8; Marsman H A, et al. Br J Surg 2013; 100(5):674-83). Ki67-positive hepatocytes were counted in a total of five high power fields per animal, by a hepatopathologist (JV) blinded to the group allocation. Liver histology was assessed at day 3 and 7 for n=6 per treatment group.\nSerum alanine transaminase (ALT), amino aspartate aminotransferase (AST), gamma-glutamyl transferase (γGT), and alkaline phosphatase (ALP) were determined by the Department of Clinical Chemistry (Academic Medical Center, Amsterdam, The Netherlands) using a Cobas 8000 modular analyzer (Roche, Basel, Switzerland) on samples obtained from 12 animals per treatment group."}, "[5]": {"test_system": "Ki67-positive hepatocytes", "assay": "Ki67 staining of liver sections, hepatocyte proliferation after PVE (Example 5)", "format": "in vivo, rabbit", "protocol": "as §3"}, "Wistar rats [6]": {"test_system": "Wistar rats", "assay": "Liver regrowth after 70% partial hepatectomy in post-cholestatic rats (Example 6)", "format": "in vivo", "source_text": "Seven days after BDL or sham operation, all rats were subjected to 70% PHx [DeGraaf 2011]. In all rBDL rats, intestinal bile flow was restored directly prior to PHx by removing the closed cannula tip and inserting the cannula into the duodenum. Animals in all treatment groups were put on regular chow after PHx. OCA treatment was continued after PHx until sacrifice. As depicted in Scheme 1, the study consisted of five experimental groups (n=4-6 animals per group per time point): control (sham), steatosis (MCD), cholestasis (rBDL), combined steatosis and cholestasis (rBDL+MCD), and cholestasis+OCA (rBDL+OCA).\nas §1, §2"}, "[7]": {"conditions": "prior to PHx, vs control and untreated rBDL"}},
  "data": [
    {"smiles": "CC[C@H]1[C@@H](O)[C@@H]2[C@H](CC[C@]3(C)[C@@H]([C@H](C)CCC(=O)O)CC[C@@H]23)[C@@]2(C)CC[C@@H](O)C[C@@H]12", "note": "[Compound 1, 3α,7α-dihydroxy-6α-ethyl-5β-cholanic acid]", "values": [
      {"measurement": "expression of Cdc25b vs controls", "setting": "FXR [1]; atrophic liver segments", "value": "+1.1 fold"},
      {"measurement": "expression of Cdc25b vs controls", "setting": "FXR [1]; hypertrophic liver segments", "value": "+1.6 fold"},
      {"measurement": "expression of Cyp7a1 vs controls", "setting": "FXR [1]; hypertrophied segments, day +3", "value": "−7.1", "unit": "fold"},
      {"measurement": "expression of Slc51b vs controls", "setting": "FXR [1]; hypertrophied segments, day +3", "value": "+6.5 fold"},
      {"measurement": "hepatic βKlotho transcript level", "setting": "FXR [2]; after three days", "value": "minor downregulation"},
      {"measurement": "hepatic Shp expression", "setting": "FXR [2]; caudal liver", "value": "without transcriptional induction"},
      {"measurement": "hepatic expression of Fgfr4", "setting": "FXR [2]; caudal liver", "value": "not affected"},
      {"measurement": "hepatic expression of Cyp7a1", "setting": "FXR [2]; caudal liver, day +3", "value": "strongly suppressed"},
      {"measurement": "Ostβ expression in the liver", "setting": "FXR [2]; day +3", "value": "elevated"},
      {"measurement": "ileal Shp expression", "setting": "FXR [2]; day +3", "value": "induction"},
      {"measurement": "hepatic Fxr expression", "setting": "FXR [2]; day +7", "value": "reduced"},
      {"measurement": "FXR activation (aggregated gene expression analysis)", "setting": "FXR [2]; ileum and liver, listed as OCA", "value": "activation of both ileal and hepatic FXR"},
      {"measurement": "ileal expression of Fxr", "setting": "FXR [2]; terminal ileum", "value": "no effect"},
      {"measurement": "ileal expression of Ostβ", "setting": "FXR [2]; terminal ileum", "value": "not affected"},
      {"measurement": "bilirubin clearance", "setting": "Wistar rats [3]; after PHx", "value": "lagged marginally"},
      {"measurement": "decline of ALP levels", "setting": "Wistar rats [3]; after PHx", "value": "~4", "unit": "fold"},
      {"measurement": "time to normalization of hepatobiliary injury markers", "setting": "Wistar rats [3]; after PHx, rBDL groups, recovery more gradual with OCA", "value": "≤ 48", "unit": "h"},
      {"measurement": "ALP levels vs other study arms", "setting": "Wistar rats [3]; during regeneration", "value": "remained higher"},
      {"measurement": "liver injury after hepatectomy", "setting": "Wistar rats [3]; histology day 5 after PHx", "value": "did not exacerbate liver injury after hepatectomy"},
      {"measurement": "plasma gamma glutamyltransferase", "setting": "Wistar rats [3]; prior to PHx", "value": "followed the same dynamics as ALP"},
      {"measurement": "plasma alanine aminotransferase (ALT)", "setting": "Wistar rats [3]; [7]", "value": "considerably higher"},
      {"measurement": "plasma alkaline phosphatase (ALP)", "setting": "Wistar rats [3]; [7]", "value": "considerably higher"},
      {"measurement": "plasma ALP vs vehicle", "setting": "[4]; after PVE", "value": "slightly higher"},
      {"measurement": "plasma γGT vs vehicle", "setting": "[4]; after PVE", "value": "slightly higher"},
      {"measurement": "hepatocellular injury or cholestasis", "setting": "[4]; conclusion from ALT, AST, γGT, ALP", "value": "did not cause hepatocellular injury or cholestasis"},
      {"measurement": "histological scoring of H&E sections of the caudal lobe", "setting": "[4]; day 3 and 7, vs vehicle, listed as OCA", "value": "no differences between groups"},
      {"measurement": "plasma transaminase levels vs vehicle", "setting": "[4]; summary", "value": "similar"},
      {"measurement": "number of Ki67-positive hepatocytes relative to vehicle", "setting": "[5]; 3 days after PVE", "value": 1.6, "unit": "fold"},
      {"measurement": "Ki67-positive hepatocytes vs vehicle", "setting": "[5]; day +3", "value": "Increased numbers"},
      {"measurement": "dry weight of the remnant liver", "setting": "Wistar rats [6]; at the time of PHx, vs other two groups", "value": "higher"},
      {"measurement": "number of Ki67+ hepatocytes", "setting": "Wistar rats [6]; day one after PHx", "value": "highest"},
      {"measurement": "mortality", "setting": "Wistar rats [6]; regeneration phase", "value": "no mortality"},
      {"measurement": "liver regrowth after 70% PHx", "setting": "Wistar rats [6]; vs untreated rBDL and control rats", "value": "stalled"}
    ]}
  ]
}
